Where “and” joins values, the source holds several entries; their conditions need not be identical. Equal entries are not always repeated.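 Method: 48-hour compound exposure of cells in 96-well plates, five concentrations, linear interpolation of endpoints. GI50: concentration for 50% inhibition of growth. TGI denotes the concentration required for complete inhibition of growth.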
Legend:
Experiment in all cases: growth of human tumour cells (NCI), 48 h
HCT-15 colon = tested on: HCT-15 colon
EKVX NSCLC = tested on: EKVX NSCLC
HL-60(TB) leukemia = tested on: HL-60(TB) leukemia
NCI-H522 lung = tested on: NCI-H522 lung
RPMI-8226 leukemia = tested on: RPMI-8226 leukemia
MOLT-4 leukemia = tested on: MOLT-4 leukemia
SW-620 colon = tested on: SW-620 colon
A498 renal = tested on: A498 renal
SNB-75 CNS = tested on: SNB-75 CNS
OVCAR-4 ovarian = tested on: OVCAR-4 ovarian

SMILES	TGI (HCT-15 colon)	TGI (EKVX NSCLC)	TGI (HL-60(TB) leukemia)	TGI (NCI-H522 lung)	TGI (RPMI-8226 leukemia)	TGI (MOLT-4 leukemia)	TGI (SW-620 colon)	GI50 (A498 renal)	TGI (A498 renal)	GI50 (HCT-15 colon)	GI50 (EKVX NSCLC)	GI50 (NCI-H522 lung)	GI50 (RPMI-8226 leukemia)	GI50 (MOLT-4 leukemia)	GI50 (SNB-75 CNS)	TGI (SNB-75 CNS)	GI50 (OVCAR-4 ovarian)	TGI (OVCAR-4 ovarian)	GI50 (HL-60(TB) leukemia)
CN(C)c1ccc(-c2cc(=O)c3ccccc3[nH]2)cc1	> 100 µM	> 100 µM	> 100 µM	> 100 µM	> 100 µM	> 100 µM	> 100 µM	–	–	–	–	–	–	–	–	–	–	–	–
COc1ccc(C(=O)/C=C/c2ccc(O)c(O)c2F)c(OC)c1	13.8 µM and 29.3 µM	30.3 µM and 28.9 µM	–	5.56 µM and 3.18 µM	31 µM and 8.25 µM	75 µM and 11.6 µM	75 µM and 25.5 µM	10.5 µM	21.3 µM and 30.6 µM	0.444 µM	10.9 µM	0.481 µM	0.923 µM	0.259 µM	4.53 µM	40.3 µM and 18.9 µM	9.3 µM	75 µM and > 100 µM	–
COc1cccc(N2C(=O)c3c(c4[nH]c5ccccc5c4c4ccc(C(C)(C)C)cc34)C2=O)c1	> 100 µM	> 100 µM	–	> 100 µM	–	> 100 µM	> 100 µM	–	> 100 µM	–	–	–	–	–	–	> 100 µM	–	> 100 µM	–
COc1nc2c(OC)cccc2c(OC)c1C=O	> 100 µM	> 100 µM	> 100 µM	> 100 µM	> 100 µM	> 100 µM	> 100 µM	–	–	–	–	–	–	–	–	> 100 µM	–	–	–
O=C(CCN1CCN(c2cccc(Cl)c2)CC1)N1CCc2c([nH]c3ccccc23)C1c1cccnc1 (stereo not drawn)	18 µM	26.3 µM	5.53 µM and 11.2 µM	19.1 µM	–	26.6 µM	23.8 µM	5.56 µM	20.2 µM	5.18 µM	–	4.85 µM	–	4.65 µM	6.24 µM	17.1 µM	4.23 µM	18.4 µM	3.19 µM
O=P(c1ccccc1)(c1ccccc1)C1CC=C(c2ccccc2)C2(CCCC2)C1 (stereo not drawn)	> 100 µM	> 100 µM	50.7 µM	–	52.1 µM	53.1 µM	> 100 µM	–	> 100 µM	–	–	–	–	–	–	> 100 µM	–	> 100 µM	–
O=C1c2ccccc2-c2c1c1ccccc1c(=O)n2Cc1ccco1	> 100 µM	> 100 µM	> 100 µM	> 100 µM	> 100 µM	> 100 µM	> 100 µM	–	> 100 µM	–	–	–	–	–	–	> 100 µM	–	–	–
Oc1cccc2c1NC1=C(CCC/C1=C\c1ccccc1)C2	> 100 µM	> 100 µM	> 100 µM	83.5 µM	> 100 µM	> 100 µM	> 100 µM	–	–	–	–	–	–	–	–	–	–	–	–
O=S(=O)([O-])[O-].[OH3+].[OH3+].[OH3+].[Ru+2].c1ccccc1	> 100 µM	> 100 µM	> 100 µM	–	> 100 µM	> 100 µM	–	–	–	> 100 µM	> 100 µM	–	> 100 µM	> 100 µM	> 100 µM	> 100 µM	> 100 µM	> 100 µM	> 100 µM
O=C1C=CC(=O)c2c1ccc1c3ccccc3n(-c3ccccn3)c21	35.3 µM	43.4 µM	31.4 µM	8.67 µM	> 100 µM	84.5 µM	–	–	–	–	–	–	–	–	–	> 100 µM	–	29.8 µM	–
